Experimental data reported in patent US5283183A, “Cyclic FR-900520 microbial biotransformation agent” (Merck & Co., Inc., priority 1992, dated 1994).
Where “and” joins values, the source holds several entries; their conditions need not be identical. Equal values may be shown once. Entries after “also recorded” stand apart in the source; their conditions may differ. Read-outs that look alike come from different tables or passages of the source.

Key:
[1] = system: mouse T lymphocytes; experiment: T-cell proliferation assay (ionomycin + PMA induced, tritiated thymidine uptake); format: cell-based, mouse (C57B1/6)
Experimental: The principle of this assay is to measure the proliferation of mouse T lymphocytes stimulated with the combination of ionomycin plus PMA.
Cells were pelleted by centrifugation at 1500 rpm for 8 minutes. Contaminating red cells were removed by treating the pellet with ammonium chloride lysing buffer (GIBCO) for 2 minutes at 4° C. Cold medium was added and cells were again centrifuged at 1500 rpm for 8 minutes. T lymphocytes were then isolated by separation of the cell suspension on nylon wool columns as follows: Nylon wool columns were prepared by packing approximately 4 grams of washed and dried nylon wool into 20 ml plastic syringes. The columns were sterilized by autoclaving at 250° F. for 30 minutes. Nylon wool columns were wetted with warm (37° C.) culture medium and rinsed with the same medium. Washed spleen cells resuspended in warm medium were slowly applied to the nylon wool. The columns were then incubated in an upright position at 37° C. for 1 hour. Non-adherent T lymphocytes were eluted from the columns with warm culture medium and the cell suspensions were spun as above.
The cell suspension was immediately distributed into 96 well flat-bottom microculture plates (Costar) at 200 μl/well. […] The proliferation of T lymphocytes was assessed by measurement of tritiated thymidine incorporation. After 44 hours of culturing, the cells were pulse-labelled with 2 μCi/well of tritiated thymidine (NEN, Cambridge, Mass.). After another 4 hours of incubation, cultures were harvested on glass fiber filters using a multiple sample harvester. Radioactivity of filter discs corresponding to individual wells was measured by standard liquid scintillation counting methods (Betacounter). Mean counts per minute of replicate wells were calculated and the results expressed as percent inhibition of tritiated thymidine uptake (proliferation) as follows: [formula]

[2] = reputed; EPO Publication No. 0184162; cited from earlier work

| Compound | IC50 ([1]; 5 additional experiments, individual values) | Inhibition of T-cell proliferation after addition of IL2 ([1]; 50 units/ml recombinant IL2 at the initiation of culture) | IC50 ([1]; Mus musculus, T-lymphocyte, based on 5 additional experiments, read-out: IC50, general range) [ng/mL] | IC50 ([1]; Mus musculus, T-lymphocyte, mean of all 6 runs, ± SEM, read-out: mean IC50) [nM] | IC50 ([1]; Mus musculus, T-lymphocyte, run of the Table, read-out: IC50) [ng/mL] | inhibition at 0.0008 µM ([1]; Mus musculus, T-lymphocyte, Compound I 0.8 nM, read-out: Percent of Inhibition) [%] | inhibition at 0.0016 µM ([1]; Mus musculus, T-lymphocyte, Compound I 1.6 nM, read-out: Percent of Inhibition) [%] | inhibition at 0.0031 µM ([1]; Mus musculus, T-lymphocyte, Compound I 3.1 nM, read-out: Percent of Inhibition) [%] | inhibition at 0.0062 µM ([1]; Mus musculus, T-lymphocyte, Compound I 6.2 nM, read-out: Percent of Inhibition) [%] | inhibition at 0.0125 µM ([1]; Mus musculus, T-lymphocyte, Compound I 12.5 nM, read-out: Percent of Inhibition) [%] | inhibition at 0.025 µM ([1]; Mus musculus, T-lymphocyte, Compound I 25.0 nM, read-out: Percent of Inhibition) [%] | inhibition at 0.05 µM ([1]; Mus musculus, T-lymphocyte, Compound I 50.0 nM, read-out: Percent of Inhibition) [%] | immunosuppressant activity ([1]; qualitative statement) | times more effective than cyclosporin [2] [times] |
| --- | --- | --- | --- | --- | --- | --- | --- | --- | --- | --- | --- | --- | --- | --- |
| CC[C@@H]1C=C2COC1(O)C[C@H](O)[C@@H](C)[C@@H](/C(C)=C/[C@@H]1CC[C@@H](O)[C@H](OC)C1)OC(=O)[C@@H]1CCCCN1C(=O)C(=O)[C@]1(O)O[C@H]([C@@H](OC)C[C@@H](C)C2)[C@@H](OC)C[C@H]1C [Compound I] | 1.92 ng/mL and 5.20 ng/mL and 4.80 ng/mL and 4.50 ng/mL | reversed | 1.57 to 5.2 | 4.36 ± 1.7 | 3.17 | 16 | 19 | 55 | 78 | 91 | 94 | 94 | positive inhibition of T-cell activation; also recorded: positive immunosuppressive activity | – |
| C=CC[C@@H]1/C=C(\C)C[C@H](C)C[C@H](OC)[C@H]2O[C@@](O)(C(=O)C(=O)N3CCCC[C@H]3C(=O)O[C@H](/C(C)=C/[C@@H]3CC[C@@H](O)[C@H](OC)C3)[C@H](C)[C@@H](O)CC1=O)[C@H](C)C[C@@H]2OC [FK-506] | – | – | – | – | – | – | – | – | – | – | – | – | – | 100 |
